This passage reports IC50 and AC50 results from patent US9181266B2, “2-piperidin-1-yl-acetamide compounds for use as tankyrase inhibitors” (NOVARTIS AG, priority 2011, dated 2015).

In one assay the target is Human PARP1 (Homo sapiens (Human), UniProt P09874). The experiment in a line: PARP1 autoparsylation assay (LC/MS detection of nicotinamide). The format is biochemical. As to conditions: 20 nM enzyme, 250 μM β-NAD+, 60 min. The protocol:
(§1) The autoparsylation activity of the TNKS 1/2 or PARP1/2 enzymes was measured by the liquid chromatography-mass spectrometry (LC/MS) detection of nicotinamide as readout. Compound activity in inhibiting the TNKS and PARP autoparsylation was evaluated by IC50 measurements.

Assay [1] deals with Axin2 protein in SW480 cells. The experiment in a line: Cellular ELISA assay of Axin2 protein stabilization. The format is cell-based. As to conditions: Homo sapiens, 24 hrs, read-out: Axin AC50. The method, boiled down: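 SW480 colorectal cells seeded overnight, treated with compound, then lysed. Axin2 in lysates measured by sandwich ELISA: anti-Axin2 capture antibody coated at 1 μg/ml (pH 9.2), lysate 2 h at room temperature, biotinylated anti-Axin2 detection 2 h, then streptavidin-HRP 30 min.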
(An ELISA detects its analyte on a solid surface through an enzyme-linked reagent.)

The target of a further assay is PARP2 (Mus musculus (Mouse), UniProt O88554). Nature of the assay: PARP2 autoparsylation assay (LC/MS detection of nicotinamide). The format is biochemical. The conditions noted are these: 20 nM enzyme, 250 μM β-NAD+, 60 min. On the procedure:
as §1

Assay [2] concerns the target tankyrase 2 protein PARP domain, TNKS2P (Homo sapiens (Human), UniProt Q9H2K2). Nature of the assay: TNKS2 autoparsylation assay (LC/MS detection of nicotinamide). The conditions noted are these: read-out: TNKS2 AP IC50, 20 nM enzyme, 250 μM β-NAD+, 60 min.
The target in assay [3] is human tankyrase 1 PARP catalytic domain, TNKS1P (Homo sapiens (Human), UniProt O95271). Nature of the assay: TNKS1 autoparsylation assay (LC/MS detection of nicotinamide). The conditions noted are these: read-out: TNKS1 AP IC50, 20 nM enzyme, 250 μM β-NAD+, 60 min.
Description: Biochemical Assay to Determine Compound Inhibition of TNKS Enzyme Activity
The autoparsylation activity of the TNKS 1/2 or PARP1/2 enzymes was measured by the liquid chromatography-mass spectrometry (LC/MS) detection of nicotinamide as readout. Compound activity in inhibiting the TNKS and PARP autoparsylation was evaluated by IC50 measurements. […] For the background control wells, 10 μL of the 5× quenching solution per well was added prior to the addition of β-NAD^+. The % Inhibition was calculated as: (Control−Sample)/(Control−Background)*100.
The subject of assay [4] is Wnt ligand-induced signaling in HEK293 cells. The experiment in a line: Wnt-responsive Super-TOpFlash (STF) luciferase reporter gene assay. The format is cell-based. As to conditions: Homo sapiens, Wnt3A condition medium. The method, boiled down: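 HEK293 cells (8000/well, 5% FBS medium) treated with 20% mouse L-cell Wnt3A conditioned medium plus compounds in 10-point serial dilution; luciferase read next day. Inhibition calculated relative to Wnt3A-induced signal without compound and background without Wnt3A CM or compound.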

Assay [5] relates to Non-small lung cancer ABC-1 cells. The experiment in a line: Cellular proliferation assay (CellTiter-Glo). The format is cell-based. The conditions noted are these: Homo sapiens, 72 h; ABC-1 cells, 3 days of compound treatment; read-out: ABC-1 IC50. For orientation: In ATP-based viability assays light output follows the ATP content of the culture.
Description: Cellular Proliferation Assay to Determine Compound Inhibition of Cancer Cell Growth
Viable cells were measured after 3 days of compound treatment using the CellTiter-Glo assay (Promega, G7570). Assay was performed following the manufacture protocol.

Sequence of human tankyrase 1 PARP catalytic domain, TNKS1P (O95271 1112-1317): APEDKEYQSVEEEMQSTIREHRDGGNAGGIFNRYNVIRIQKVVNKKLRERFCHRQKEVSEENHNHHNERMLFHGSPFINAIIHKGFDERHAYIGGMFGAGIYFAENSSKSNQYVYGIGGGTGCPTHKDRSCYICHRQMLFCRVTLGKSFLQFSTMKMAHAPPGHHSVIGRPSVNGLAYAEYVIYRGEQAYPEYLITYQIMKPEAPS
Sequence of Human PARP1 (P09874 whole entry): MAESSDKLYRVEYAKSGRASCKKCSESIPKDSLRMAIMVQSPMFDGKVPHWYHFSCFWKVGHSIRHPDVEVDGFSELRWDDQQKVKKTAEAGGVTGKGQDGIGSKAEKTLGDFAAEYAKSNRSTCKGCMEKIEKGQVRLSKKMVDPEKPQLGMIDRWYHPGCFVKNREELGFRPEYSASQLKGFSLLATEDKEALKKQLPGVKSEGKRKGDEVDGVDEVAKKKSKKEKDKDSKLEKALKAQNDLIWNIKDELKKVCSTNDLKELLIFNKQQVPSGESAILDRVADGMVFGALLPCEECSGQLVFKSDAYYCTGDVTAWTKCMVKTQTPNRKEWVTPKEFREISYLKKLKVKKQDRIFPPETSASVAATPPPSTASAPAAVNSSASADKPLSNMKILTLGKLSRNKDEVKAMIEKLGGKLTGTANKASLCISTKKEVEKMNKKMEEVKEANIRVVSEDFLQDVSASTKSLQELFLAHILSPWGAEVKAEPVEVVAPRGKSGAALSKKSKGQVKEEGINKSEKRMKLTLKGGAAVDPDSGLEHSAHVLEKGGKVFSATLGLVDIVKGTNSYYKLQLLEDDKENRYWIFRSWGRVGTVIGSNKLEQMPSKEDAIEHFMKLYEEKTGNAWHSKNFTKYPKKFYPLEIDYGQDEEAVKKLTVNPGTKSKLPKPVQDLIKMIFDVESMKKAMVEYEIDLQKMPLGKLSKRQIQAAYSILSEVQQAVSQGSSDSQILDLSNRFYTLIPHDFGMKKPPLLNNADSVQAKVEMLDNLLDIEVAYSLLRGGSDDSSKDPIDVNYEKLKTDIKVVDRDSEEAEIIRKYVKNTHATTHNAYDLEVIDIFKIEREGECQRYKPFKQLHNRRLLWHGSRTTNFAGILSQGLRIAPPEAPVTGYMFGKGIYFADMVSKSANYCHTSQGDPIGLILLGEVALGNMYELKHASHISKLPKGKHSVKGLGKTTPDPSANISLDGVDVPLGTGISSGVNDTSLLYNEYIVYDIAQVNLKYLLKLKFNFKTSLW
Sequence of tankyrase 2 protein PARP domain, TNKS2P (Q9H2K2 959-1164): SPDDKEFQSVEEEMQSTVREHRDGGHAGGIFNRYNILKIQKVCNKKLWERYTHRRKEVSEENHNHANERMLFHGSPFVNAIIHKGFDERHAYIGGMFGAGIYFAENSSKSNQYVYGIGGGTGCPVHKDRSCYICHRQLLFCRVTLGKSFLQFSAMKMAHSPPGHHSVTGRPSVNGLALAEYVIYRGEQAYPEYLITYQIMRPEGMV
Sequence of PARP2 (O88554 whole entry): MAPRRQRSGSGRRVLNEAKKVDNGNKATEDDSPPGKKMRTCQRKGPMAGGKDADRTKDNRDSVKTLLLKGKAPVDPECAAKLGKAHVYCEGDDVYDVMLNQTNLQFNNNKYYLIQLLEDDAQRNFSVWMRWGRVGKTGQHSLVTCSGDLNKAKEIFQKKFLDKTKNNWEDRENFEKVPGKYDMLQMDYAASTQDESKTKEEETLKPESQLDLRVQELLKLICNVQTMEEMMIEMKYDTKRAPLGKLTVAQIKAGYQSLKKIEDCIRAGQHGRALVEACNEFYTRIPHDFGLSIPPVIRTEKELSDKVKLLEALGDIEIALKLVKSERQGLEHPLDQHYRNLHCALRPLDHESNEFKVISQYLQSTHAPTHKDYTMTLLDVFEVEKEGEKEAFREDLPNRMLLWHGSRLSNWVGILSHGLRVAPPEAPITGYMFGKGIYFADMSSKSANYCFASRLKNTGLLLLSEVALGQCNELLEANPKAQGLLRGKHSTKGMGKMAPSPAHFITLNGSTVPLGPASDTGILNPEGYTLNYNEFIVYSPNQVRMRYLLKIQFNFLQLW

For `O=C(CN1CCC(C(=O)c2ccc(Cl)cc2)CC1)NCc1nc2c(c(=O)[nH]1)COCC2` [Example 2, 2-[4-(4-Chloro-benzoyl)-piperidin-1-yl]-N-(4-oxo-3,5,7,8-tetrahydro-4H-pyrano[4,3-d]-pyrimidin-2-ylmethyl)-acetamide], the 50% inhibitory concentration (IC50) at Human PARP1 is 9100 ± 1000 nM; on PARP2, 2590 ± 290 nM; in assay [2], 7 nM; in assay [3] it was 37 ± 2 nM; in assay [4], 10 ± 2 nM; in assay [5], 393 nM. Further, the AC50 in assay [1] stood at 205 ± 61 nM.
Regarding `C[C@H](c1ccccc1)N(Cc1nc2c(c(=O)[nH]1)COCC2)C(=O)CN1CCC(C(=O)c2ccc(F)cc2)CC1` [Example 4, 2-[4-(4-Fluoro-benzoyl)-piperidin-1-yl]-N-(4-oxo-3,5,7,8-tetrahydro-4H-pyrano[4,3-c]pyrimidin-2-ylmethyl)-N—((R)-1-phenyl-ethyl)-acetamide], the IC50 is greater than 19000 nM on Human PARP1; greater than 19000 nM on PARP2; 16 ± 1 nM in assay [2]; 63 ± 5 nM in assay [3]; 59 ± 17 nM in assay [4]. For the same compound, the AC50 in assay [1] stood at 363 ± 37 nM.
On to `O=C(c1ccc(F)cc1)C1CCN(CC(=O)N(Cc2cccc(F)c2)Cc2nc3c(c(=O)[nH]2)COCC3)CC1` [Example 19, 2-(4-(4-Fluorobenzoyl)piperidin-1-yl)-N-(3-fluorobenzyl)-N-((4-oxo-4,5,7,8-tetrahydro-3H-pyrano[4,3-d]pyrimidin-2-yl)methyl)acetamide], for which the IC50 is greater than 19000 nM on Human PARP1; greater than 19000 nM against PARP2; 21 ± 1 nM in assay [2]; 84 ± 7 nM in assay [3]; 92 ± 77 nM in assay [4]. The AC50 in assay [1] worked out at 779 ± 83 nM.
On to `O=C(c1ccc(F)cc1)C1CCN(CC(=O)N(Cc2nc3c(c(=O)[nH]2)COCC3)CC2CC2)CC1` [Example 24, N-Cyclopropylmethyl-2-[4-(4-fluoro-benzoyl)-piperidin-1-yl]-N-(4-oxo-3,5,7,8-tetrahydro-4H-pyrano[4,3-d]pyrimidin-2-ylmethyl)-acetamide], for which the IC50 on Human PARP1 is greater than 19000 nM; against PARP2, greater than 19000 nM; in assay [3], 35 ± 10 nM; in assay [5], 276 ± 37 nM. For the same compound, in assay [1], the AC50 came to 320 ± 180 nM.
In the case of `CC[C@H](C)CN(Cc1nc2c(c(=O)[nH]1)COCC2)C(=O)CN1CCC(C(=O)c2ccc(F)cc2)CC1` [Example 25, 2-[4-(4-Fluoro-benzoyl)-piperidin-1-yl]-N—((S)-2-methyl-butyl)-N-(4-oxo-3,5,7,8-tetrahydro-4H-pyrano[4,3-d]pyrimidin-2-ylmethyl)-acetamide], the half-maximal inhibitory concentration (IC50) against Human PARP1 is greater than 19000 nM; on PARP2, greater than 19000 nM; in assay [2] it was 13 ± 1 nM; in assay [3] it was 37 ± 4 nM; in assay [4], 30 ± 9 nM. Besides, the half-maximal activity concentration (AC50) in assay [1] was found to be 179 ± 26 nM.
Turning to `C#CCN(Cc1nc2c(c(=O)[nH]1)COCC2)C(=O)CN1CCC(C(=O)c2ccc(F)cc2)CC1` [Example 27, 2-(4-(4-Fluorobenzoyl)piperidin-1-yl)-N-((4-oxo-4,5,7,8-tetrahydro-3H-pyrano[4,3-d]pyrimidin-2-yl)methyl)-N-(prop-2-ynyl)acetamide], the IC50 is greater than 19000 nM at Human PARP1; greater than 19000 nM at PARP2; 14 ± 1 nM in assay [2]; 43 ± 1 nM in assay [3]; 53 ± 45 nM in assay [4]. Further, the AC50 in assay [1] was 3640 ± 660 nM.
Turning to `O=C(c1ccc(F)cc1)C1CCN(CC(=O)N(Cc2nc3c(c(=O)[nH]2)COCC3)C[C@@H]2CCCO2)CC1` [Example 28, (S)-2-(4-(4-Fluorobenzoyl)piperidin-1-yl)-N-((4-oxo-4,5,7,8-tetrahydro-3H-pyrano[4,3-d]pyrimidin-2-yl)methyl)-N-((tetrahydrofuran-2-yl)methyl)acetamide], the half-inhibitory concentration (IC50) against Human PARP1 was greater than 19000 nM; at PARP2 it was greater than 19000 nM; in assay [2] it was 10 ± 1 nM; in assay [3], 24 ± 1 nM; in assay [4], 15 ± 4 nM. For the same compound, the half-maximal activity concentration (AC50) in assay [1] was 101 ± 19 nM.
Turning to `N#Cc1ccc(CN(Cc2nc3c(c(=O)[nH]2)COCC3)C(=O)CN2CCC(C(=O)c3ccc(F)cc3)CC2)s1` [Example 46, N-(5-Cyano-thiophen-2-ylmethyl)-2-[4-(4-fluoro-benzoyl)-piperidin-1-yl]-N-(4-oxo-3,5,7,8-tetrahydro-4H-pyrano[4,3-d]pyrimidin-2-ylmethyl)-acetamide], the IC50 was greater than 19000 nM at Human PARP1; greater than 19000 nM at PARP2; 16 ± 1.4 nM in assay [2]; 53 ± 4 nM in assay [3]; 36 ± 8 nM in assay [4]. Moreover, the AC50 in assay [1] amounted to 275 ± 84 nM.
As for `O=C(CN1CCC2(CC1)Cc1cc(F)ccc1C2=O)NCc1nc2c(c(=O)[nH]1)COCC2` [Example 61, 2-(5-Fluoro-1-oxo-1,3-dihydrospiro[indene-2,4′-piperidine]-1′-yl)-N-((4-oxo-4,5,7,8-tetrahydro-3H-pyrano[4,3-d]pyrimidin-2-yl)methyl)acetamide], the IC50 against Human PARP1 is 6500 ± 1700 nM; against PARP2, greater than 19000 nM; in assay [2], 8 ± 2.6 nM; in assay [3], 25 ± 6 nM; in assay [4], 1600 ± 800 nM; in assay [5], 8120 nM.
Consider `CCOc1ccc(C(=O)C2CCN(CC(=O)NCc3nc4c(c(=O)[nH]3)COCC4)CC2)cc1` [Example 66, 2-(4-(4-Ethoxybenzoyl)piperidin-1-yl)-N-((4-oxo-4,5,7,8-tetrahydro-3H-pyrano[4,3-d]pyrimidin-2-yl)methyl)acetamide], for which the IC50 came out at 6500 ± 1300 nM against Human PARP1; 3200 ± 1000 nM at PARP2; 9 ± 7 nM in assay [2]; 27 ± 10 nM in assay [3]; 5690 ± 170 nM in assay [4]. For the same compound, the concentration at half-maximal activity (AC50) in assay [1] is greater than 10000 nM.
`COc1cccc(C(=O)C2CCN(CC(=O)N(Cc3nc4c(c(=O)[nH]3)COCC4)CC(F)F)CC2)c1` [Example 73, N-(2,2-Difluoro-ethyl)-2-[4-(3-methoxy-benzoyl)-piperidin-1-yl]-N-(4-oxo-3,5,7,8-tetrahydro-4H-pyrano[4,3-d]pyrimidin-2-ylmethyl)-acetamide]: the IC50 was greater than 19000 nM against Human PARP1; greater than 19000 nM against PARP2; 16 ± 2 nM in assay [2]; 49 ± 1 nM in assay [3]; 470 ± 150 nM in assay [4]. For the same compound, the concentration at half-maximal activity (AC50) in assay [1] is greater than 10000 nM.
`O=C(CN1CCC(n2c(=O)[nH]c3ccccc32)CC1)NCc1nc2c(c(=O)[nH]1)COCC2` [Example 82, 2-(4-(2-Oxo-2,3-dihydro-1H-benzo[d]imidazol-1-yl)piperidin-1-yl)-N-((4-oxo-4,5,7,8-tetrahydro-3H-pyrano[4,3-d]pyrimidin-2-yl)methyl)acetamide]: the IC50 against Human PARP1 was 32400 ± 4600 nM; against PARP2, 2900 ± 900 nM; in assay [2], 39 ± 3 nM; in assay [3] it was 222 ± 2 nM; in assay [4], 787 ± 23 nM.
Regarding `COc1ccc(C(=O)C2CCN(CC(=O)NCc3cc4c(c(=O)[nH]3)COCC4)CC2)cc1` [Example 97, 2-[4-(4-Methoxy-benzoyl)-piperidin-1-yl]-N-(8-oxo-3,4,7,8-tetrahydro-1H-pyrano[3,4-c]pyridin-6-ylmethyl)-acetamide], the half-maximal inhibitory concentration (IC50) turned out to be 7500 ± 400 nM against Human PARP1, 1150 ± 9 nM on PARP2, 27 ± 1 nM in assay [2] and 100 ± 10 nM in assay [3]. Moreover, in assay [1], the AC50 amounted to 266 ± 58 nM.

Broadly, the IC50 is the concentration that inhibits the measured activity by half. The AC50 is the concentration at which the activity in the assay is half-maximal.
